Test results from ChEMBL document CHEMBL5512675, “Design of Selective PARP-1 Inhibitors and Antitumor Studies” (J Med Chem, 2024).
Each block holds one molecule with its values, some of them ahead of it.

What was measured:
[1] = target: Poly [ADP-ribose] polymerase 1 (Mus musculus, UniProt P11103); experiment: Inhibition of recombinant mouse PARP-1 incubated for 16 hrs in presence of NAD+ by liquid scintillation spectrometry based scintillation proximity assay
[2] = target: Poly [ADP-ribose] polymerase 1 (Homo sapiens, UniProt P09874); experiment: Inhibition of GST-tagged human PARP1 incubated for 30 mins by chemiluminescence based UV/visible spectrophotometric analysis
[3] = target: Poly [ADP-ribose] polymerase 2 (Homo sapiens, UniProt Q9UGN5); experiment: Inhibition of GST-tagged human PARP2 incubated for 30 mins by chemiluminescence based UV/visible spectrophotometric analysis
SK-OV-3 [4] = experiment: animal or person; conditions: Mus musculus, SK-OV-3, po, 744 h, read-out: TGI
Description: Antitumor activity against human SK-OV-3 cells xenografted in female BALB/c nude mouse assessed as tumor growth inhibition at 50 mg/kg, po administered via gavage once daily for 31 days relative to control

[5] = Inhibition of PARP1 Ala755Gln, Gln759Ser and Val762Ile mutant (unknown origin) incubated for 1 hrs in presence of NAD and DNA by ELISA
HCC1937 = experiment: cells; conditions: Homo sapiens, HCC1937, 72 h
Description: Antiproliferative activity against human HCC1937 cells harboring BRCA2 mutant assessed as inhibition of cell proliferation incubated for 72 hrs

CAPAN-1 = experiment: cells; conditions: Homo sapiens, CAPAN-1, 72 h
Description: Antiproliferative activity against human CAPAN-1 cells harboring BRCA1 mutant assessed as inhibition of cell proliferation incubated for 72 hrs

SiHa = experiment: cells; conditions: Homo sapiens, 72 h
Description: Antiproliferative activity against human SiHa cells assessed as inhibition of cell proliferation incubated for 72 hrs

C-33-A = experiment: cells; conditions: Homo sapiens, 72 h
Description: Antiproliferative activity against human C-33-A cells assessed as inhibition of cell proliferation incubated for 72 hrs

SK-OV-3 [6] = experiment: cells; conditions: Homo sapiens, SK-OV-3, 72 h
Description: Antiproliferative activity against human SK-OV-3 cells assessed as inhibition of cell proliferation incubated for 72 hrs

HCT-116 = experiment: cells; conditions: Homo sapiens, HCT-116, 72 h
Description: Antiproliferative activity against human HCT-116 cells assessed as inhibition of cell proliferation incubated for 72 hrs

A549 = experiment: cells; conditions: Homo sapiens, A549, 72 h
Description: Antiproliferative activity against human A549 cells assessed as inhibition of cell proliferation incubated for 72 hrs

in vitro [7] = conditions: human, H8 cells
Description: Cytotoxicity against human H8 cells assessed as inhibition of cell proliferation incubated for 72 hrs

in vitro [8] = conditions: human, NCM460 cells
Description: Cytotoxicity against human NCM460 cells assessed as inhibition of cell proliferation incubated for 72 hrs

Sequence of Poly [ADP-ribose] polymerase 2 (Q9UGN5 whole entry): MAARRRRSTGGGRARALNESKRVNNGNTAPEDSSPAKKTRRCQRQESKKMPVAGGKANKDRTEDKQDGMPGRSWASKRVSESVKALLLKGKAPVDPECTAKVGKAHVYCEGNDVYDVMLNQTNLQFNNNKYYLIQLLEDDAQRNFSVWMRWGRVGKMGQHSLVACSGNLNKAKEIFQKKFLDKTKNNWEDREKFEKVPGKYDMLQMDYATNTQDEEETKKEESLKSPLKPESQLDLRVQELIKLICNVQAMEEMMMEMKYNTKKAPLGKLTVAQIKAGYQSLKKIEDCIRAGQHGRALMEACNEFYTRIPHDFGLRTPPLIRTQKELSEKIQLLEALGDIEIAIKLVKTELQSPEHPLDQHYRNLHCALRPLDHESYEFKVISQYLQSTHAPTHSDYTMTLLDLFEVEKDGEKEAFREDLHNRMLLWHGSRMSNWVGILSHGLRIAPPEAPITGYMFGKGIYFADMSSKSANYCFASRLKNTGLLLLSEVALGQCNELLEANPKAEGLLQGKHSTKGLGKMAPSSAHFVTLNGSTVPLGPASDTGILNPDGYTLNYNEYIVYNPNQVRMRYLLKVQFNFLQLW
Sequence of Poly [ADP-ribose] polymerase 1 (Homo sapiens, UniProt P09874) (P09874 whole entry): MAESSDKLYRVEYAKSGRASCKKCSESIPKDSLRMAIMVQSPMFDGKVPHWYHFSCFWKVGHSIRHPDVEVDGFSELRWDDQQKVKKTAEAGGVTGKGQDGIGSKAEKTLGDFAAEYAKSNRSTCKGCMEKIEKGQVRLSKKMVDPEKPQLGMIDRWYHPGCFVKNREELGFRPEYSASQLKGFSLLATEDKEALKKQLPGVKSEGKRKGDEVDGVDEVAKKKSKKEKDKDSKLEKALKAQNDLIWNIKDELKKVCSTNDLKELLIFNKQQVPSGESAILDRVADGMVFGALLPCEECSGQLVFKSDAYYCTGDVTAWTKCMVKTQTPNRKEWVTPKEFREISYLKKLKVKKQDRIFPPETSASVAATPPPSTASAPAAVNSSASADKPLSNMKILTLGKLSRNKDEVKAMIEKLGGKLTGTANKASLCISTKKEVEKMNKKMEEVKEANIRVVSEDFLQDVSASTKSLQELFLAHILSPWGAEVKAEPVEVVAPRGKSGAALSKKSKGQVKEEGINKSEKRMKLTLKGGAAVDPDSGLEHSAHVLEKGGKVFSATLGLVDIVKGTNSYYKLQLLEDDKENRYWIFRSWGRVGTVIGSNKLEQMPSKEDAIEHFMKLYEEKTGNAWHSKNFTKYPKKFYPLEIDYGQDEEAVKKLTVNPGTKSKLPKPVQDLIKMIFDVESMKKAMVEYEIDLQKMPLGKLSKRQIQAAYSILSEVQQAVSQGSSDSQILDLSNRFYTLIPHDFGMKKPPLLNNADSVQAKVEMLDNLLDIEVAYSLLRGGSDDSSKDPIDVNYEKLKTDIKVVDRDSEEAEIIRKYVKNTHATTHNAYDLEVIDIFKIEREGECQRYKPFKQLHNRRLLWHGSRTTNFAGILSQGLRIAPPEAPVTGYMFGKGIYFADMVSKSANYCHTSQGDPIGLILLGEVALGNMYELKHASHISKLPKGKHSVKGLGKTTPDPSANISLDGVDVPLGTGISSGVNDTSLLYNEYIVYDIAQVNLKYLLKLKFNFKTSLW
Sequence of Poly [ADP-ribose] polymerase 1 (Mus musculus, UniProt P11103) (P11103 whole entry): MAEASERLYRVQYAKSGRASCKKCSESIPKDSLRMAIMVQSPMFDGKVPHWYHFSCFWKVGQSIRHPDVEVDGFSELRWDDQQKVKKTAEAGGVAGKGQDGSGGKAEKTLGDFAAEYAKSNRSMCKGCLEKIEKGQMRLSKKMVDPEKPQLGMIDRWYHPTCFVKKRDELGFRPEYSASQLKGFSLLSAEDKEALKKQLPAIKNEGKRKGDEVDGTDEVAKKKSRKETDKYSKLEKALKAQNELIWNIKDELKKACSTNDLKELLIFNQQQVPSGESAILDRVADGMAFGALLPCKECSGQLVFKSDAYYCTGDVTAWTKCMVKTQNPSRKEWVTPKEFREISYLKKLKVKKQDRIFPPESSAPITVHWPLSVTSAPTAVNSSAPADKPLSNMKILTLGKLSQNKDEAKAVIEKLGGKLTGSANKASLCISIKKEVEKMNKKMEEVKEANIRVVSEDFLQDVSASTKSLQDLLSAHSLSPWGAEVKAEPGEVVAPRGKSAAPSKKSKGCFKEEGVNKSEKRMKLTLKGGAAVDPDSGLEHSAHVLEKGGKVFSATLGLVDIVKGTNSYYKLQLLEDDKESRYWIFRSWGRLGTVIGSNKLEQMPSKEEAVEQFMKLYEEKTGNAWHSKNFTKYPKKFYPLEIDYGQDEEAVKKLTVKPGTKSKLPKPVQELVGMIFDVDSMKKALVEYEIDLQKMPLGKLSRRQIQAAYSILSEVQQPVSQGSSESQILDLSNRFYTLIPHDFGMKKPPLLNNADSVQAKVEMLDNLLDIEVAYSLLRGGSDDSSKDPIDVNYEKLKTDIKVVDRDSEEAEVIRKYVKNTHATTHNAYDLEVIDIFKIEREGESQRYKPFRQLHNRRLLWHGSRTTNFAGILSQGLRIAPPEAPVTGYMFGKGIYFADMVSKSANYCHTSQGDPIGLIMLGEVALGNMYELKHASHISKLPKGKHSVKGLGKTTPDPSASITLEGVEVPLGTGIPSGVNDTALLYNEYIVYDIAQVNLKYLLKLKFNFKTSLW

- IC50 [1]: 4.79 µM
Structure (SMILES): Cn1cccc1/C=C1\C(=O)NC(=O)c2ccccc21

- IC50 [2]: 0.0429 µM
- IC50 [3]: 1.56 µM
Structure (SMILES): COc1cc(/C=N/NC(N)=S)c(Br)c(Br)c1OC
- inhibition in vivo at 50 mg/kg (SK-OV-3 [4]): 57.4%

- IC50 [2]: 0.0332 µM
- IC50 [3]: 2.07 µM
Structure (SMILES): COc1cc(-c2nc3c(C(N)=O)cccc3[nH]2)cc(Br)c1OC(=O)C(C)(C)C

- IC50 [2]: 0.0337 µM
- IC50 [3]: 1.78 µM
Structure (SMILES): COc1cc(-c2nc3c(C(N)=O)cccc3[nH]2)cc(Br)c1OS(=O)(=O)c1c(C)cc(C)cc1C

- IC50 [2]: 0.0505 µM
- IC50 [3]: 0.76 µM
Structure (SMILES): CCCS(=O)(=O)Oc1c(Br)cc(-c2nc3c(C(N)=O)cccc3[nH]2)cc1OC

- IC50 [5]: 0.0104 µM
- IC50 (HCC1937): 22 µM
- IC50 (CAPAN-1): 60.7 µM
- IC50 (SiHa): > 200 µM
- IC50 (C-33-A): > 200 µM
- IC50 (SK-OV-3 [6]): 167 µM
- IC50 (HCT-116): > 200 µM
- IC50 (A549): > 200 µM
- IC50 at 72 h (in vitro [7]): > 200 µM
- IC50 at 72 h (in vitro [8]): > 200 µM
Structure (SMILES): O=C(c1cc(Cc2n[nH]c(=O)c3ccccc23)ccc1F)N1CCN(C(=O)C2CC2)CC1 [OLAPARIB]
